Read-outs that look alike come from different tables or passages of the source.
Target: T1, human kinase Mps-1 (Homo sapiens, UniProt P33981)
T1 construct: N-terminally GST-tagged human full length recombinant Mps-1 kinase; GST (N); purchased Invitrogen, Karslruhe, Germany PV4071
T1 sequence (P33981 1-857): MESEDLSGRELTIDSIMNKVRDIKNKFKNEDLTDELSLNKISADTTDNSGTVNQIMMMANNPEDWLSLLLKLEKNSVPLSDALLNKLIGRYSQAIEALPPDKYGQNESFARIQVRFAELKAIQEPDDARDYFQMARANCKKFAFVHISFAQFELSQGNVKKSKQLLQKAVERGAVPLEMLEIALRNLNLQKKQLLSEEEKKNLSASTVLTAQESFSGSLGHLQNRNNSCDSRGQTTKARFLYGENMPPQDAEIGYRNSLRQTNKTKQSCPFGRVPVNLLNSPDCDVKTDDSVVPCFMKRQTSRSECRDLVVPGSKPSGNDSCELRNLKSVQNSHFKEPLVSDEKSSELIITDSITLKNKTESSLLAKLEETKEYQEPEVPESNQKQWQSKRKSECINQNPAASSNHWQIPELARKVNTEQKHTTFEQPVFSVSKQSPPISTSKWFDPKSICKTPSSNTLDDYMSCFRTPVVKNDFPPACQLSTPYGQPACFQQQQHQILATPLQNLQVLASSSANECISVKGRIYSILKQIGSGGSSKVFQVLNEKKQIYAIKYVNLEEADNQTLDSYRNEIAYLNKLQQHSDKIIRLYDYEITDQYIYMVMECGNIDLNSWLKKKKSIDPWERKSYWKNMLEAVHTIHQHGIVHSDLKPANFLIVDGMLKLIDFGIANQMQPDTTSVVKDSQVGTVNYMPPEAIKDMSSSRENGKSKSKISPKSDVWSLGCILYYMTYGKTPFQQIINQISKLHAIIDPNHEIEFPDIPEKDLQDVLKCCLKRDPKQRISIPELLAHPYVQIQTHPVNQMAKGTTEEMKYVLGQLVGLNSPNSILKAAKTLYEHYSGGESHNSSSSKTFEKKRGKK
Experiment: Mps-1 kinase assay (TR-FRET)
Assay type: biochemical
Conditions: N-terminally GST-tagged human full length recombinant Mps-1, 10 μM ATP, 1 μM biotinylated peptide substrate, 60 min at 22° C.

IC50 (read-out: Mps1 IC50) [nM]	SMILES	IC50 (Mps1 IC50 [nM]) [nM]
87.4	CS(=O)(=O)CCCNc1nccn2c(-c3ccc(C(=O)NC4CC4)cc3)cnc12 [Example 4-2, N-cyclopropyl-4-(8-{[3-(methylsulfonyl)propyl]amino}imidazo[1,2-a]pyrazin-3-yl)benzamide]	
	O=C(NC1CC1)c1ccc(-c2cnc3c(NCc4ccc(F)cc4)nccn23)cc1O [Example 7-74, N-cyclopropyl-4-{8-[(4-fluorobenzyl)amino]imi-dazo[1,2-a]pyrazin-3-yl}-2-hydroxybenzamide]	98.2
	O=C(NC1CC1)c1ccc(-c2cnc3c(NCCC(F)(F)F)nccn23)cc1O [Example 7-83, N-cyclopropyl-2-hydroxy-4-{8-[(3,3,3-trifluoropropyl)amino]imi-dazo[1,2-a]pyrazin-3-yl}benzamide]	22.3
23.3	CCCNc1nccn2c(-c3ccc(C(=O)NC4CC4)c(O)c3)cnc12 [Example 7-69, N-cyclopropyl-2-hydroxy-4-[8-(propylamino)imidazo[1,2-a]pyrazin-3-yl]benzamide]	
	Cc1cc(-c2cnc3c(NCCCO)nccn23)ccc1C(=O)NC1CC1 [Example 7-104, N-cyclopropyl-4-{8-[(3-hydroxypropyl)amino]imi-dazo[1,2-a]pyrazin-3-yl}-2-methylbenzamide]	124
64.6	O=C(NC1CC1)c1ccc(-c2cnc3c(NCc4ccccc4)nccn23)cc1Cl [Example 7-40, 4-[8-(benzylamino)imidazo[1,2-a]pyrazin-3-yl]-2-chloro-N-cyclopropylbenzamide]	
	CC(O)CNc1nccn2c(-c3ccc(C(=O)NC4CC4)c(Cl)c3)cnc12 (stereo not drawn) [Example 7-57, 2-chloro-N-cyclopropyl-4-{8-[(2-hydroxypropyl)amino]imi-dazo[1,2-a]pyrazin-3-yl}benzamide]	401
	Cc1cc(-c2cnc3c(NCCCCO)nccn23)ccc1C(=O)NC1CC1 [Example 7-99, N-cyclopropyl-4-{8-[(4-hydroxybutyl)amino]imi-dazo[1,2-a]pyrazin-3-yl}-2-methylbenzamide]	70.8
	O=C(NC1CC1)c1ccc(-c2cnc3c(NCCCN4CCCC4=O)nccn23)cc1O [Example 7-73, N-cyclopropyl-2-hydroxy-4-(8-{[3-(2-oxopyrrolidin-1-yl)propyl]amino}imi-dazo[1,2-a]pyrazin-3-yl)benzamide]	593
18.8	Cc1cc(-c2cnc3c(NCC4CC4)nccn23)ccc1C(=O)NC1CC1 [Example 7-107, N-cyclopropyl-4-{8-[(cyclopropylmethyl)ami-no]imidazo[1,2-a]pyrazin-3-yl}-2-methylbenzamide]	
	O=C(NC1CC1)c1ccc(-c2cnc3c(NCC(F)(F)C(F)(F)F)nccn23)cc1Cl [Example 7-53, 2-chloro-N-cyclopropyl-4-{8-[(2,2,3,3,3-pentafluoropropyl)amino]imi-dazo[1,2-a]pyrazin-3-yl}benzamide]	106
73.1	O=C(NC1CC1)c1ccc(-c2cnc3c(NCC4CC4)nccn23)cc1Cl [Example 7-46, 2-chloro-N-cyclopropyl-4-{8-[(cyclopropylmethyl)ami-no]imidazo[1,2-a]pyrazin-3-yl}benzamide]	
	Cn1nccc1CNc1nccn2c(-c3ccc(C(=O)NC4CC4)c(Cl)c3)cnc12 [Example 7-61, 2-chloro-N-cyclopropyl-4-(8-{[(1-methyl-1H-pyrazol-5-yl)methyl]amino}imi-dazo[1,2-a]pyrazin-3-yl)benzamide]	269
	O=C(NC1CC1)c1ccc(-c2cnc3c(NCCCN4CCCC4=O)nccn23)cc1 [Example 7-28, N-cyclopropyl-4-(8-{[3-(2-oxopyrrolidin-1-yl)propyl]amino}imi-dazo[1,2-a]pyrazin-3-yl)benzamide]	1270
	O=C(NC1CC1)c1ccc(-c2cnc3c(NCC(O)C(F)(F)F)nccn23)cc1O (stereo not drawn) [Example 7-82, N-cyclopropyl-2-hydroxy-4-{8-[(3,3,3-trifluoro-2-hydroxypropyl)amino]imi-dazo[1,2-a]pyrazin-3-yl}benzamide]	56.7
1950	O=C(NC1CC1)c1ccc(-c2cnc3c(NCCN4CCCCC4)nccn23)cc1 [Example 7-8, N-cyclopropyl-4-(8-{[2-(piperidin-1-yl)ethyl]amino}imidazo[1,2-a]pyrazin-3-yl)benzamide]	

IC50 (read-out: Mps1 IC50) [nM]	SMILES	IC50 (Mps1 IC50 [nM]) [nM]
97.6	NS(=O)(=O)c1ccc(CCNc2nccn3c(-c4ccc(C(=O)NC5CC5)cc4)cnc23)cc1 [Example 7-27, N-cyclopropyl-4-(8-{[2-(4-sulfamoylphenyl)ethyl]ami-no}imidazo[1,2-a]pyrazin-3-yl)benzamide]	
54.2	CCCCNc1nccn2c(-c3ccc(C(=O)NC4CC4)c(Cl)c3)cnc12 [Example 7-44, 4-[8-(butylamino)imidazo[1,2-a]pyrazin-3-yl]-2-chloro-N-cyclopropylbenzamide]	
	Cc1cc(-c2cnc3c(NCc4ccccc4O)nccn23)ccc1C(=O)NC1CC1 [Example 5-2, N-cyclopropyl-4-{8-[(2-hydroxybenzyl)amino]imi-dazo[1,2-a]pyrazin-3-yl}-2-methylbenzamide]	24.4
	O=C(NC1CC1)c1ccc(-c2cnc3c(NCCc4ccccc4)nccn23)cc1 [Example 7-9, N-cyclopropyl-4-{8-[(2-phenylethyl)amino]imi-dazo[1,2-a]pyrazin-3-yl}benzamide]	47.7
	Cn1cc(CNc2nccn3c(-c4ccc(C(=O)NC5CC5)c(O)c4)cnc23)cn1 [Example 7-85, N-cyclopropyl-2-hydroxy-4-(8-{[(1-methyl-1H-pyrazol-4-yl)methyl]amino}imi-dazo[1,2-a]pyrazin-3-yl)benzamide]	105
	O=C(NC1CC1)c1ccc(-c2cnc3c(NCc4ccccc4F)nccn23)cc1 [Example 4-3, N-cyclopropyl-4-{8-[(2-fluorobenzyl)amino]imi-dazo[1,2-a]pyrazin-3-yl}benzamide]	11
	O=C(NC1CC1)c1ccc(-c2cnc3c(NC[C@@H](O)CO)nccn23)cc1Cl [Example 7-68, 2-chloro-N-cyclopropyl-4-{8-[(2,3-dihydroxypropyl)amino]imi-dazo[1,2-a]pyrazin-3-yl}benzamide]	1720
	Cc1ccc(CNc2nccn3c(-c4ccc(C(=O)NC5CC5)cc4)cnc23)cc1 [Example 7-22, N-cyclopropyl-4-{8-[(4-methylbenzyl)amino]imi-dazo[1,2-a]pyrazin-3-yl}benzamide]	21
	Cc1cc(-c2cnc3c(NCc4ccncc4)nccn23)ccc1C(=O)NC1CC1 [Example 7-109, N-cyclopropyl-2-methyl-4-{8-[(pyridin-4-ylmethyl)amino]imi-dazo[1,2-a]pyrazin-3-yl}benzamide]	166
	Cc1cc(-c2cnc3c(NCc4ccco4)nccn23)ccc1C(=O)NC1CC1 [Example 7-110, N-cyclopropyl-4-{8-[(furan-2-ylmethyl)amino]imi-dazo[1,2-a]pyrazin-3-yl}-2-methylbenzamide]	28.1
	O=C(NC1CC1)c1ccc(-c2cnc3c(NCc4ccco4)nccn23)cc1O [Example 7-79, N-cyclopropyl-4-{8-[(furan-2-ylmethyl)amino]imi-dazo[1,2-a]pyrazin-3-yl}-2-hydroxybenzamide]	77.3
	Cc1cc(-c2cnc3c(NCC(C)O)nccn23)ccc1C(=O)NC1CC1 (stereo not drawn) [Example 7-115, N-cyclopropyl-4-{8-[(2-hydroxypropyl)amino]imi-dazo[1,2-a]pyrazin-3-yl}-2-methylbenzamide]	101
4050	CN(C)CCNc1nccn2c(-c3ccc(C(=O)NC4CC4)cc3)cnc12 [Example 7-7, N-cyclopropyl-4-(8-{[2-(dimethylamino)ethyl]ami-no}imidazo[1,2-a]pyrazin-3-yl)benzamide]	
519	CS(=O)(=O)CCCNc1nccn2c(-c3ccc(C(=O)NC4CC4)c(Cl)c3)cnc12 [Example 7-66, 2-chloro-N-cyclopropyl-4-(8-{[3-(methylsulfonyl)propyl]ami-no}imidazo[1,2-a]pyrazin-3-yl)benzamide]	
145	CCNc1nccn2c(-c3ccc(C(=O)NC4CC4)c(C)c3)cnc12 [Example 7-103, N-cyclopropyl-4-[8-(ethylamino)imidazo[1,2-a]pyrazin-3-yl]-2-methylbenzamide]	
54.5	O=C(NC1CC1)c1ccc(-c2cnc3c(NCCCO)nccn23)cc1 [Example 3-1, N-cyclopropyl-4-[8-[(3-hydroxypropyl)amino]imidazo[1,2-a]pyrazin-3-yl]benzamide]	

SMILES	IC50 (read-out: Mps1 IC50) [nM]	IC50 (Mps1 IC50 [nM]) [nM]
CC(C)CNc1nccn2c(-c3ccc(C(=O)NC4CC4)c(Cl)c3)cnc12 [Example 6-1, 2-chloro-N-cyclopropyl-4-{8-[(2-methylpropyl)amino]imidazo[1,2-a]pyrazin-3-yl}benzamide]	28	

From patent US20130303532A1, “IMIDAZOPYRAZINES FOR USE AS MPS-1 AND TKK INHIBITORS IN THE TREATMENT HYPERPROLIFERATIVE DISORDERS” (BAYER INTELLECTUAL PROPERTY GmbH, priority 2010, published 2013)
